Measured values taken from US20240423888A1, “COSMETIC AND/OR DERMATOLOGICAL COMPOSITION COMPRISING AT LEAST ONE MEROCYANINE AND AT LEAST ASCORBIC ACID AND/OR A DERIVATIVE THEREOF” (L'OREAL, priority 2021, published 2024).

Test system: normal human dermal fibroblasts (NHDF)
Experiment: Procollagen I assay (ELISA) in culture medium of normal human dermal fibroblasts exposed to UVA, formulas spread on PMMA plates placed over the cells
Type: cell-based
Conditions: for Mean procollagen 1 (normalized by Cyquant signal and relative to the unexposed Control): 48 hours after last exposure
Procedure: The efficacy of a combination in accordance with the invention and outside the invention is tested by assaying procollagen 1 in a culture medium of normal human dermal fibroblasts exposed to UVA.
• Normal human dermal fibroblasts (NHDF) obtained from a mammary plasty. • Culture: 37° C., 5% CO2. • Culture medium and test medium: MEM (Gibco 21090-022) containing 10% foetal calf serum (FCS) (Gibco 10270-098), 2 mM L-glutamine (Gibco 25030-024), 1 mM sodium pyruvate (Gibco 11360-039), 1× non-essential amino acids (Gibco 11140-035), 250 ng/ml amphotericin B (Gibco 15290-018) and penicillin/streptomycin 20 U/20 […].
The normal human dermal fibroblasts were seeded in complete MEM medium and incubated for 72 h at 37° C. and 5% CO2.
The cells are then exposed for 3 consecutive days to a dose of 25 J/cm^2 of total UVA using an Oriel solar simulator fitted with a WG335 filter. Depending on the conditions, a PMMA plate to which the formula comprising the screening agents according to the invention or outside the invention or the Placebo formula is applied is placed over the cells during exposure. After each exposure, the cells are treated or not with ascorbic acid (10 μM) diluted in the culture medium. The cells are then incubated at 37° C., 5% CO2. 48 hours after the last exposure, a cell viability test (XTT Roche cat. 11465015001) is performed, and the number of cells in each well is evaluated by means of a Cyquant assay (Molecular Probes C7026). The media are collected and a procollagen I assay is performed by ELISA (Abcam ab210966). Each experimental condition is performed in duplicate or triplicate and at least three independent experiments are performed.

[1] = 25 J/cm^2 total UVA on 3 consecutive days, formula 1.3 mg/cm^2 on PMMA plate over the cells, ascorbic acid 10 μM where given

O=C1O[C@H]([C@@H](O)CO)C(O)=C1O [VitC, ascorbic acid]
relative % relative to the control 0 J (0 J/cm^2 (unexposed), ascorbic acid 10 μM): +260.5%
Mean procollagen 1 (normalized by Cyquant signal and relative to the unexposed Control) (0 J/cm^2 (unexposed), ascorbic acid 10 μM, unexposed Control = 100): 360.5
relative % relative to the control 0 J [1]: +29.7%
Mean procollagen 1 (normalized by Cyquant signal and relative to the unexposed Control) [1]: 129.7
secretion of procollagen 1 by the fibroblasts (ascorbic acid tested at 10 μM, result in words): significantly increased
ability of ascorbic acid to induce procollagen 1 secretion (effect of UVA, result in words): significantly reduced
